What was measured:
[1] = target: T1, Myeloperoxidase (Homo sapiens, UniProt P05164); test: Surface Plasmon Resonance (SPR); conditions: pH 5
T1 sequence (P05164 whole entry): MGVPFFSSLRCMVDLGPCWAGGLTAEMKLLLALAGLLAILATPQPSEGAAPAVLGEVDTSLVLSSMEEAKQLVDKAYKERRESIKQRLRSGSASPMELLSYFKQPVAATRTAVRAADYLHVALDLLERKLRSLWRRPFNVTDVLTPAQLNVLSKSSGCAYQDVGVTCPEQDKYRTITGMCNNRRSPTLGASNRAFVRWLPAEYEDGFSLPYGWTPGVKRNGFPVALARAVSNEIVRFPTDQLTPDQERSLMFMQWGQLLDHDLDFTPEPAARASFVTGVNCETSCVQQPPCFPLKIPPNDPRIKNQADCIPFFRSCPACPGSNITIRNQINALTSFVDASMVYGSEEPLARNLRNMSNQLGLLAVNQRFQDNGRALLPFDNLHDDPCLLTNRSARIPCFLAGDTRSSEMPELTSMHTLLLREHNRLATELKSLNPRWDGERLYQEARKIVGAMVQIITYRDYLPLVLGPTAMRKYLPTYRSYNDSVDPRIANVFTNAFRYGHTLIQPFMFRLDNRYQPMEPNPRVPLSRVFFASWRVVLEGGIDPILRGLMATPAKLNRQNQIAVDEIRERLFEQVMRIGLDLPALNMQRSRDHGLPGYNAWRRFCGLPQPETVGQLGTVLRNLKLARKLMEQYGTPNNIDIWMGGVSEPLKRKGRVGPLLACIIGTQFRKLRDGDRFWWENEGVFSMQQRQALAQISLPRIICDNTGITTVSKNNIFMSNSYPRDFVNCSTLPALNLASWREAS
Description: Binding kinetics were determined by surface plasmon resonance (SPR) using a Biacore S51 (Biacore, Uppsala, Sweden). MPO (50 μg/ml dissolved in 10 mM sodium acetate, pH 5.0) was immobilized onto the surface of CM5 sensor chips (Biacore) using surface amine coupling. One of the spots on the sensor surface was left without MPO to control for nonspecific binding. The signal observed in response to analyte binding was as expected linearly related to the amount of immobilized ligand, and 10,000 response units was routinely used to characterize compoundbinding (data not shown). Compounds were dissolved in binding buffer (10 mM HEPES, pH 7.4, 150 mM NaCl, 3 mM Na2EDTA, 0.005% (w/v) surfactant P20, 1% (v/v) DMSO final), and association was assessed during 60-210-s injections. After this time, analyte injection was terminated, and the chip surface was perfused with binding buffer at 30 μl/min for 4-12 min to monitor compound dissociation.

[2] = target: T2, Thyroid peroxidase (Homo sapiens, UniProt P07202); test: LPO/TPO Selectivity Assay
T2 sequence (P07202 whole entry): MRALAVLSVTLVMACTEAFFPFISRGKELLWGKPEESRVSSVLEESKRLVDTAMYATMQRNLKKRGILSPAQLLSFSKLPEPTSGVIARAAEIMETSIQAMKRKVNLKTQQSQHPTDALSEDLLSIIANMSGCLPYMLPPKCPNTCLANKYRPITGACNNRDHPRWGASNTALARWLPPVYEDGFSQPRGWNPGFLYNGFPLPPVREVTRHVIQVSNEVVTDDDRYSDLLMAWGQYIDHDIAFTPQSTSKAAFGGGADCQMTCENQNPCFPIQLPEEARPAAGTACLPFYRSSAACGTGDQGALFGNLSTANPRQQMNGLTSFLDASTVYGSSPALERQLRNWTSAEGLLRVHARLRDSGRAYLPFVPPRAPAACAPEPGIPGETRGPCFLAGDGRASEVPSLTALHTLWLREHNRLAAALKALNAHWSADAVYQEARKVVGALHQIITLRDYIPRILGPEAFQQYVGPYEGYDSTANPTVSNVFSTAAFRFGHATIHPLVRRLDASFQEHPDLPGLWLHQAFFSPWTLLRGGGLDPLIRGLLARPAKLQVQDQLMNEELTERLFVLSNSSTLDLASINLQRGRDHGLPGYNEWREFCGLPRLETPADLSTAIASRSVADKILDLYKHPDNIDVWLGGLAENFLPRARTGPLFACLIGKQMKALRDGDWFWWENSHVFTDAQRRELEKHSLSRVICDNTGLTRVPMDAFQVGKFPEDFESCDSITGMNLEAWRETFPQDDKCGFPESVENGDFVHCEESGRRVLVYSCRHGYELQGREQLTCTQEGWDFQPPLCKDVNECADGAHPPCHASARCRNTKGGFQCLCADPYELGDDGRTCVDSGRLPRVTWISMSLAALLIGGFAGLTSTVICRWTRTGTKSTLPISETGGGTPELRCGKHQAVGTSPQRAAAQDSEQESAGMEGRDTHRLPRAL
Description: (§1) The halogenation activities of LPO (EC 1.11.1.7) and TPO (EC 1.11.1.8) were determined using a modified method of that described previously [Ferrari et al., J. Inorg. Biochem., 68:61-69].

[3] = target: Lactoperoxidase (Bos taurus, UniProt P80025); test: LPO/TPO Selectivity Assay
Description: as §1

[4] = target: T1, Myeloperoxidase; test: Myeloperoxidase Assay; conditions: pH 6.5
Description: Assays were performed at 22 °C with 2 nM MPO and 10 μM hydrogen peroxide (H2O2) in 20 mM NaH2PO4 buffer, pH 6.5 containing 140 mM NaCl, 10 mM taurine, and 1 mM L-tyrosine. Inhibitor compounds were preincubated with MPO for 15 min prior to the addition of H2O2, and the accumulation of taurine chloramine was determined after 1 min.

Kd [1] | IC50 [2] | IC50 [3] | IC50 [4] | Compound
63 nM | 63 nM | 40 nM | 25.1 nM | O=C(NO)c1ccc(Cc2ccccc2)cc1O [4-benzyl-2-hydroxybenzenecarbohydroxamic acid (HX2)]
– | 1590 nM | 6300 nM | – | O=C(NO)c1c[nH]c(NCc2cc(C(F)(F)F)cc(C(F)(F)F)c2)nc1=O [2-(3,5-bistrifluoromethylbenzylamino)-6-oxo-1H-pyrimidine-5-carbohydroxamic acid (HX1)]
– | 2000 nM | – | 25000 nM | O=C(NO)c1ccccc1O [Salicylic hydroxamic acid]
2000 nM | 1590 nM | 2000 nM | 790 nM | O=C(NO)c1c[nH]c(NCc2ccccc2)nc1=O [2-(benzylamino)-6-oxo-3H-pyrimidine-5-carbohydroxamic acid (HX3)]
